Source: ChEMBL document CHEMBL1201862, “PubChem BioAssay data set” (2004)
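In this assay, cells in 96-well plates receive the compound at five concentrations for 48 hours. Endpoints are linearly interpolated between the surrounding concentrations. GI50 = concentration required for 50% inhibition of growth.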 Active and inactive are the calls of the source. No stated cut-off is given here; in the data, active = GI50 up to about 1.1 µM and inactive = higher.

Tests used:
Test in all cases: DTP human tumour cell line panel, 48 h
COLO 205 = system: COLO 205
HT-29 = system: HT-29
K562 = system: K562
KM12 = system: KM12
M14 = system: M14
M19-MEL = system: M19-MEL
NCI-H226 = system: NCI-H226
OVCAR-8 = system: OVCAR-8
SF-268 = system: SF-268
SF-539 = system: SF-539
SK-OV-3 = system: SK-OV-3
SR = system: SR
SW-620 = system: SW-620
UACC-257 = system: UACC-257
UACC-62 = system: UACC-62
A498 = system: A498
Hs-578T = system: Hs-578T
MDA-MB-435 = system: MDA-MB-435
NCI/ADR-RES = system: NCI/ADR-RES
T47D = system: T47D

Measured: GI50

O=C(c1ccco1)N(C(=S)N1CCN(c2ccccn2)CC1)C1CCCCC1
inactive: COLO 205 > 100 µM | HT-29 > 100 µM | K562 > 100 µM | KM12 > 100 µM | M14 > 100 µM | M19-MEL > 100 µM | NCI-H226 > 100 µM | OVCAR-8 > 100 µM | SF-268 > 100 µM | SF-539 > 100 µM | SK-OV-3 > 100 µM | SR > 100 µM | SW-620 > 100 µM | UACC-257 > 100 µM | UACC-62 > 100 µM

NC(=S)N/N=C1/C(=O)N(c2ccccc2)C(=O)C1C(=O)Nc1ccccc1 (stereo unspecified)
inactive: A498 > 100 µM | COLO 205 > 100 µM | HT-29 > 100 µM | KM12 > 100 µM | M14 > 100 µM | M19-MEL > 100 µM | NCI-H226 > 100 µM | OVCAR-8 > 100 µM | SF-268 > 100 µM | SF-539 > 100 µM | SK-OV-3 > 100 µM | SR > 100 µM | SW-620 > 100 µM | UACC-257 > 100 µM | UACC-62 > 100 µM

COc1ccc(C(C#N)NNc2nc(C)cc(O)n2)cc1OC (stereo unspecified)
inactive: COLO 205 > 100 µM | HT-29 > 100 µM | K562 > 100 µM | KM12 > 100 µM | M14 > 100 µM | M19-MEL > 100 µM | NCI-H226 > 100 µM | OVCAR-8 > 100 µM | SF-268 > 100 µM | SF-539 > 100 µM | SK-OV-3 > 100 µM | SR > 100 µM | SW-620 > 100 µM | UACC-257 > 100 µM | UACC-62 > 100 µM

O=[N+]([O-])CCc1cccc([N+](=O)[O-])c1
inactive: A498 > 100 µM | COLO 205 > 100 µM | HT-29 > 100 µM | K562 > 100 µM | KM12 > 100 µM | M14 > 100 µM | M19-MEL > 100 µM | NCI-H226 > 100 µM | OVCAR-8 > 100 µM | SF-268 > 100 µM | SF-539 > 100 µM | SR > 100 µM | SW-620 9.44 µM | UACC-257 > 100 µM | UACC-62 > 100 µM

COc1cc2cc3c4c(cc(OC)c(OC)c4c2cc1OC)CCN3C(=O)CCC(=O)NCCCN(C)C
inactive: COLO 205 32.6 µM | HT-29 22.6 µM | K562 33.6 µM | KM12 67.1 µM | M14 17.6 µM | M19-MEL 22.8 µM | NCI-H226 66.8 µM | OVCAR-8 > 100 µM | SF-268 > 100 µM | SF-539 18.8 µM | SK-OV-3 46.2 µM | SR 25.2 µM | SW-620 54 µM | UACC-257 > 100 µM | UACC-62 47.6 µM

CC1CSC(=S)N1C(=O)N1C(=S)SCC1C (stereo unspecified)
inactive: A498 27.5 µM | COLO 205 16.3 µM | HT-29 27.4 µM | Hs-578T 35.7 µM | K562 20.1 µM | KM12 27.8 µM | M14 21.9 µM | M19-MEL 25.6 µM | MDA-MB-435 17.2 µM | NCI-H226 26.5 µM | NCI/ADR-RES 19.1 µM | OVCAR-8 16.7 µM | SF-268 26.3 µM | SF-539 19.3 µM | SK-OV-3 40.9 µM | SR 12.5 µM | SW-620 20.4 µM | T47D 28.6 µM | UACC-257 19.3 µM | UACC-62 14.7 µM

CN(Cc1ccccc1)c1nc(=[N+](C)C)ss1
inactive: A498 99.5 µM | HT-29 74.8 µM | K562 23.4 µM | KM12 9.42 µM | M14 > 100 µM | M19-MEL 41.9 µM | NCI-H226 8.95 µM | OVCAR-8 > 100 µM | SF-268 49.1 µM | SF-539 76.4 µM | SK-OV-3 96.8 µM | SR 44.2 µM | SW-620 > 100 µM | UACC-257 56.5 µM | UACC-62 24.6 µM

CC(=O)OCC(OC(C)=O)C(OC(C)=O)C(OC(C)=O)C(=O)CNn1c(-c2ccccc2)nc2ccc(Br)cc2c1=O (stereo unspecified)
inactive: A498 > 100 µM | COLO 205 > 100 µM | HT-29 > 100 µM | K562 > 100 µM | KM12 > 100 µM | M14 > 100 µM | M19-MEL > 100 µM | NCI-H226 > 100 µM | OVCAR-8 > 100 µM | SF-268 > 100 µM | SF-539 > 100 µM | SK-OV-3 > 100 µM | SR > 100 µM | SW-620 > 100 µM | UACC-257 > 100 µM | UACC-62 83.4 µM

C=C(c1ccccc1)[C@@]1(O)CC[C@@H]1N(CC#N)Cc1ccccc1
inactive: A498 13.6 µM | COLO 205 16.3 µM | HT-29 19.8 µM | Hs-578T 20.7 µM | K562 42.1 µM | KM12 28.6 µM | M14 17.3 µM | M19-MEL 28.3 µM | MDA-MB-435 22.5 µM | NCI-H226 35.2 µM | NCI/ADR-RES 19.7 µM | OVCAR-8 33.4 µM | SF-268 33.5 µM | SF-539 29.2 µM | SK-OV-3 98.9 µM | SR 37.2 µM | SW-620 18.2 µM | T47D 16.3 µM | UACC-257 17.8 µM | UACC-62 17.9 µM

Cc1ccc2c(c1)CN(C(=O)CCC(=O)OCc1ccccc1)c1ccc(C)cc1CN2C(=O)CCC(=O)OCc1ccccc1
inactive: A498 > 100 µM | COLO 205 > 100 µM | HT-29 > 100 µM | Hs-578T 40 µM | K562 > 100 µM | KM12 99.3 µM | M14 > 100 µM | M19-MEL > 100 µM | MDA-MB-435 > 100 µM | NCI-H226 > 100 µM | NCI/ADR-RES > 100 µM | OVCAR-8 > 100 µM | SF-268 > 100 µM | SF-539 88.3 µM | SK-OV-3 > 100 µM | SR > 100 µM | SW-620 > 100 µM | T47D > 100 µM | UACC-257 > 100 µM | UACC-62 > 100 µM
